{"source": "paper PMC12197678", "about": "“Cvill6 and Cvill7: Potent and Selective Peptide Blockers of Kv1.2 Ion Channel Isolated from Mexican Scorpion Centruroides villegasi” (Toxins, 2025)", "key": {"hKv1.3": {"target": "T1, hKv1.3 (Homo sapiens, UniProt P22001)", "T1 construct": "peripheral blood mononuclear cells (PBMCs) were isolated from the healthy donor’s blood; endogenous in cells", "T1 sequence (P22001 whole entry)": "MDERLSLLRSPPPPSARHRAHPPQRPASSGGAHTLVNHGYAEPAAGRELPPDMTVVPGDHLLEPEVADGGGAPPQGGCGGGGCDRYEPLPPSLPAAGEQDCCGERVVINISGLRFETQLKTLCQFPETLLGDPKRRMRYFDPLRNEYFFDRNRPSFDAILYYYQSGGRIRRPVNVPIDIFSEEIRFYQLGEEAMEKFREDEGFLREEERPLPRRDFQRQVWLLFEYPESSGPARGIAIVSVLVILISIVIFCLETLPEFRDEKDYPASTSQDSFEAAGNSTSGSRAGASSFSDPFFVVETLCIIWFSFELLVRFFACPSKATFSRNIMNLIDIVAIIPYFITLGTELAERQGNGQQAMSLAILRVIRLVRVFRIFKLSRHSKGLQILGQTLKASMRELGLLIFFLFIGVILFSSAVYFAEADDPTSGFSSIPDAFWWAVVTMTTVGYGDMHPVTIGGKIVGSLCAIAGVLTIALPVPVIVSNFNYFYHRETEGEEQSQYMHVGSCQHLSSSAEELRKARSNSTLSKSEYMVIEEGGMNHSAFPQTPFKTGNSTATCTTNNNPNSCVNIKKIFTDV", "assay": "cell-based", "assay_type": "cell-based", "text": "Therefore, we aimed to investigate the effects of Cvill6 and Cvill7 on voltage-gated K^+ ion channels. Among the tested ion channels there were four members from the Shaker-related human Kv1 family, hKv1.1, hKv1.2, hKv1.3, and hKv1.5 (Figure 3A–E), and one member of the human ether-a-go-go-related (hERG) cardiac K^+ channel hKv11.1 (hERG1, Figure 3F). For current recordings, Kv1.1, Kv1.2, and Kv1.5 were transiently expressed in CHO cells while for Kv11.1 a stable HEK293 cell line was used. To record Kv1.3 currents human peripheral T lymphocytes were activated with Phytohemagglutinin A (PHA) to boost Kv1.3 expression and Ca^2+-free intracellular solution to prevent the KCa3.1 channel opening. […] Appropriate voltage protocols were applied to record the K^+ currents from voltage-clamped cells in whole-cell configurations. Toxins were freshly dissolved in the bath solution supplemented with 0.1 mg/mL BSA and applied to the patched cells via a gravity-fed micro-perfusion system with an approximate flow rate of 200 µL/min.\nTo avoid toxin adsorption onto the plastic surfaces of the perfusion system, 0.1 mg/mL of bovine serum albumin (BSA, Sigma-Aldrich, Budapest, Hungary) was also added into all bath solutions prior to the patch-clamp assay.\nWhole-cell currents were recorded using the patch-clamp technique in voltage-clamp mode, following standard protocols. […] Micropipettes were made from GC150F-7.5 borosilicate capillaries (Harvard Apparatus Co., Holliston, MA, USA) using a Sutter P2000 laser puller with tip resistance generally ranging from 3–6 MΩ in the bath solution. Only recordings with a leak current at the holding potential (Vh) of <10% of the peak current at the test potential were included in the data analysis. All recordings were performed at room temperature (20–25 °C). Control and test solutions were perfused to the cells via a gravity-driven micro-perfusion system and AutoMate Perfusion Pencil Multi-Barrel Manifold Tip (AutoMate Scientific, Berkeley, CA, USA), with an approximate flow rate of 200 µL/min, and the excess amount of bath solution was continuously removed from the recording chamber using vacuum suction.\nThe duration of depolarization pulses was 15 ms for Kv1.3 and 50 ms for Kv1.1 and Kv1.5. However, for Kv1.2, 15–500 ms-long pulses were used to achieve the saturated peak current due to the variable activation kinetics of this channel. […] KCa2.2 and KCa3.1 currents were recorded by applying 150 ms-long voltage ramps to +50 mV from −120 mV every 10 s; the Vh was set to −85 mV.\nBefore analysis, all current traces were digitally filtered using three-point boxcar smoothing and were corrected for ohmic leakage, only if required. […] Data points in the concentration–response curve represent the mean RCF values of three to six individual cells, with error bars denoting the standard error of the mean (SEM). The data points for each concentration were fitted using the Hill equation: RCF = IC50^H/(IC50^H + [toxin]^H), where IC50 is the dissociation constant, H represents the Hill coefficient, and [toxin] is the concentration of the toxin.\nTo study the binding kinetics of Cvill toxins, the peak current during the application of toxin at time point t (It) was normalized to the peak current (I0) before the toxin exposure (Inorm = It/I0) and plotted as a function of time."}, "hKv1.1": {"target": "T2, hKv1.1 (Homo sapiens, UniProt Q09470)", "T2 construct": "host or cells: CHO cells, transient transfection (Lipofectamine 2000)", "T2 sequence (Q09470 whole entry)": "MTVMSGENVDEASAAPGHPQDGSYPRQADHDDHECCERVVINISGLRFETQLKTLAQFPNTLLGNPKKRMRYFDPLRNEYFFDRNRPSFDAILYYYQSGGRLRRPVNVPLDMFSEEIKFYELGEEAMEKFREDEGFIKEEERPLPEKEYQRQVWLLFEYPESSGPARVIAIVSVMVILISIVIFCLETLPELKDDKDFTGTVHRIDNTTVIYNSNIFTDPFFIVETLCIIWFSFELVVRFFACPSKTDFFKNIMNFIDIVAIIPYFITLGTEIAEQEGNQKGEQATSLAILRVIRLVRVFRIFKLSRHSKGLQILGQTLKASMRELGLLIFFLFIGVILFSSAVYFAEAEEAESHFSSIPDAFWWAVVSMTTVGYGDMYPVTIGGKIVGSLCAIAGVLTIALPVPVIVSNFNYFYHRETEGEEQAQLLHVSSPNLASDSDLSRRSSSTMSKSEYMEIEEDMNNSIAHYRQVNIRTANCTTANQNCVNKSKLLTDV", "assay": "cell-based", "assay_type": "cell-based", "method": "Chinese hamster ovary (CHO) cells (generously provided by Yosef Yarden, Weizmann Institute of Science, Rehovot, Israel) or human embryonic kidney (HEK293) cells were cultured and maintained in Dulbecco’s modified Eagle medium (DMEM, Thermo Fisher Scientific, Waltham, MA, USA) supplemented with 2 mM L-glutamine, 10% fetal bovine serum (FBS), 100 µg/mL streptomycin, and 100 U/mL penicillin-g (Sigma-Aldrich, Budapest, Hungary) following standard culturing conditions [52]. For transient expression of ion channels, CHO cells were transfected using the Lipofectamine 2000 kit (Invitrogen, Waltham, MA, USA) following the manufacturer’s instructions with plasmids encoding specific ion channels, including hKv1.1 (KCNA1 gene), hKv1.2 (KCNA2 gene), and hKv1.5 (KCNA5 gene) in a pCMV6-AC-GFP vector (OriGene Technologies), hKCa2.2 (KCNN2 gene) in a pCDN3 plasmid (for this transfection a GFP containing plasmid was co-transfected, courtesy of Bernard Attali, Tel Aviv University, Tel Aviv, Israel), and hKCa3.1 (KCNN4 gene) in a pEGFP-C1 vector (a kind gift by H. Wulff, University of California, Davis, CA, USA). […] Electrophysiological recordings were typically conducted 24 to 48 h after transfection.\nWhole-cell currents were recorded using the patch-clamp technique in voltage-clamp mode, following standard protocols [73]. […] Micropipettes were made from GC150F-7.5 borosilicate capillaries (Harvard Apparatus Co., Holliston, MA, USA) using a Sutter P2000 laser puller with tip resistance generally ranging from 3–6 MΩ in the bath solution. Only recordings with a leak current at the holding potential (Vh) of <10% of the peak current at the test potential were included in the data analysis. All recordings were performed at room temperature (20–25 °C). Control and test solutions were perfused to the cells via a gravity-driven micro-perfusion system and AutoMate Perfusion Pencil Multi-Barrel Manifold Tip (AutoMate Scientific, Berkeley, CA, USA), with an approximate flow rate of 200 µL/min, and the excess amount of bath solution was continuously removed from the recording chamber using vacuum suction.\nThe duration of depolarization pulses was 15 ms for Kv1.3 and 50 ms for Kv1.1 and Kv1.5. However, for Kv1.2, 15–500 ms-long pulses were used to achieve the saturated peak current due to the variable activation kinetics of this channel [74]."}, "[1]": {"details": "read-out: inhibition of hKv1.3 current"}}, "note": "Like-named read-outs stand apart in the source and are kept apart here. Positions of bridges follow the written chain, without caps; N, C: chain ends. Residues, ends and D or L forms follow the SMILES beside them.", "data": [{"compound": "CC[C@H](C)[C@H](N)C(=O)N[C@@H](Cc1ccccc1)C(=O)N[C@H](C(=O)N[C@@H](CC(N)=O)C(=O)N[C@H](C(=O)N[C@@H](CCCCN)C(=O)N[C@H]1CSSC[C@@H]2NC(=O)[C@H](CCCCN)NC(=O)CNC(=O)CNC(=O)[C@H](C)NC(=O)[C@H](Cc3c[nH]cn3)NC(=O)[C@H](CCC(N)=O)NC(=O)CNC(=O)[C@H](Cc3ccccc3)NC(=O)[C@H](CCCNC(=N)N)NC(=O)[C@H](CC(=O)O)NC(=O)[C@H](CCCCN)NC(=O)[C@@H]3CSSC[C@@H](C(=O)N[C@@H](Cc4ccc(O)cc4)C(=O)N4CCC[C@H]4C(=O)O)NC(=O)[C@H](CCCCN)NC(=O)[C@H](CSSC[C@H](NC(=O)[C@H](CCC(N)=O)NC(=O)[C@H](CCC(N)=O)NC(=O)[C@@H]4CCCN4C(=O)[C@H](CC(C)C)NC(=O)[C@H](CC(=O)O)NC1=O)C(=O)N[C@@H](CC(C)C)C(=O)N[C@@H](CCCNC(=N)N)C(=O)N1CCC[C@H]1C(=O)N3)NC(=O)[C@H](CCCCN)NC(=O)CNC(=O)[C@H](CC(N)=O)NC(=O)[C@H]([C@@H](C)CC)NC2=O)C(C)C)[C@@H](C)CC", "note": "[Cvill6] (H-IFINVKCDLPQQCLRPCKDRFGQHAGGKCINGKCKCYP-OH; disulfide 7-29, 13-34, 17-36 (inferred); N-terminus and C-terminus assumed)", "values": [{"measurement": "potency estimated from few doses", "setting": "hKv1.3; read-out: estimated IC50", "value": "~0.84", "unit": "µM"}, {"measurement": "inhibition at 0.1 µM", "setting": "hKv1.3; read-out: inhibition of Kv1.3", "value": "~11", "unit": "%"}, {"measurement": "inhibition at 0.1 µM", "setting": "hKv1.3; [1]", "value": "~13", "unit": "%"}, {"measurement": "effect on hKv1.1 current", "setting": "hKv1.1; 100 nM", "value": "no change in current amplitudes"}]}, {"compound": "CC[C@H](C)[C@H](NC(=O)[C@H](Cc1ccccc1)NC(=O)[C@@H](N)[C@@H](C)O)C(=O)N[C@@H](CC(N)=O)C(=O)N[C@H](C(=O)N[C@@H](CCCCN)C(=O)N[C@H]1CSSC[C@@H]2NC(=O)[C@H](CCCCN)NC(=O)CNC(=O)CNC(=O)[C@H](C)NC(=O)[C@H](Cc3c[nH]cn3)NC(=O)[C@@H]3CCCN3C(=O)CNC(=O)[C@H](Cc3ccc(O)cc3)NC(=O)[C@H](CC(C)C)NC(=O)[C@H](CC(=O)O)NC(=O)[C@H](CCCCN)NC(=O)[C@@H]3CSSC[C@@H](C(=O)N[C@@H](Cc4ccc(O)cc4)C(=O)N[C@@H](CC(N)=O)C(=O)N[C@@H](CC(N)=O)C(N)=O)NC(=O)[C@H](CCCCN)NC(=O)[C@H](CSSC[C@H](NC(=O)[C@H](CCC(N)=O)NC(=O)[C@H](CCCCN)NC(=O)[C@@H]4CCCN4C(=O)[C@H](CO)NC(=O)[C@H]([C@@H](C)O)NC1=O)C(=O)N[C@@H](CC(C)C)C(=O)N[C@@H](CCCCN)C(=O)N1CCC[C@H]1C(=O)N3)NC(=O)[C@H](CCCCN)NC(=O)CNC(=O)[C@H](CC(N)=O)NC(=O)[C@H](CCSC)NC2=O)C(C)C", "note": "[Cvill7] (H-TFINVKCTSPKQCLKPCKDLYGPHAGGKCMNGKCKCYNN-NH2; disulfide 7-29, 13-34, 17-36; N-terminus and C-terminus assumed)", "values": [{"measurement": "IC50", "setting": "hKv1.3", "value": "0.0072 ± 0.00064", "unit": "µM"}, {"measurement": "Kd", "setting": "hKv1.3", "value": 0.025, "unit": "µM"}, {"measurement": "koff", "setting": "hKv1.3", "value": "0.032 ± 0.0068", "unit": "s⁻¹"}, {"measurement": "kon", "setting": "hKv1.3", "value": "1.3e+06", "unit": "M⁻¹ s⁻¹"}, {"measurement": "reversibility of Kv1.3 block", "setting": "hKv1.3; 15 nM, then toxin-free solution", "value": "fully reversible with rapid association and dissociation kinetics"}, {"measurement": "equilibrium block of Kv1.3", "setting": "hKv1.3; 15 nM, n = 3", "value": "67 ± 3", "unit": "%"}, {"measurement": "τon (development of block)", "setting": "hKv1.3; Kv1.3, 15 nM, mean ± SEM, n = 3", "value": "20 ± 1.8", "unit": "s"}, {"measurement": "τon, representative fit", "setting": "hKv1.3; Kv1.3, 15 nM, representative fit (Figure S5B)", "value": 22.6, "unit": "s"}, {"measurement": "Hill coefficient (H)", "setting": "hKv1.3; Kv1.3, Hill equation fit of RCF values", "value": 0.73}, {"measurement": "τoff (wash-out)", "setting": "hKv1.3; Kv1.3, after 15 nM, mean ± SEM, n = 3", "value": "34 ± 6", "unit": "s"}, {"measurement": "τoff, representative fit", "setting": "hKv1.3; Kv1.3, after 15 nM, representative fit (Figure S5B)", "value": 34.5, "unit": "s"}, {"measurement": "inhibition at 0.1 µM", "setting": "hKv1.3; [1]", "value": "~86", "unit": "%"}, {"measurement": "reduction of hKv1.1 peak current", "setting": "hKv1.1; 100 nM, representative record, equilibrium block", "value": "~ 32%"}, {"measurement": "potency estimated from few doses", "setting": "hKv1.1; CHO, read-out: estimated IC50", "value": "~0.192", "unit": "µM"}, {"measurement": "inhibition at 0.1 µM", "setting": "hKv1.1; CHO, read-out: inhibition of Kv1.1 current", "value": "~34", "unit": "%"}]}]}
